Measured values taken from paper PMC3228873 (Journal of medicinal chemistry, 2011).

Legend:
TbrPDEB2 = TbrPDEB2 (Trypanosoma brucei brucei, UniProt Q38F42); assay: TbrPDE assay, recombinant TbrPDEB2 catalytic domain; format: biochemical
TbrPDEB1 = TbrPDEB1 (Trypanosoma brucei, UniProt Q8WQX9); assay: TbrPDE assay, recombinant TbrPDEB1 catalytic domain; format: biochemical; details: for IC50: read-out: TbrPDEB1 IC50, Table 1, 10% DMSO, 25 μM cAMP, ">> x μM" if <25% inh at x μM, "> x μM" if 25-50% inh at x μM; for activity against TbrPDEB1 (in words): benchmark screening; for inhibition at 100 µM / inhibition at 10 µM: read-out: inhibition of TbrPDEB1
[1] = system: Bloodstream forms of Trypanosoma brucei brucei strain 427; assay: Trypanosome cell culture assay; format: cell-based

Structure (SMILES): CS(=O)(=O)Oc1ccc2c(NC(N)=O)c(C(=O)c3ccc(Cl)cc3Cl)oc2c1 [BAY 19-8004]
- IC50 (TbrPDEB2; read-out: TbrPDEB2 IC50, Table 1, 10% DMSO, 25 μM cAMP, ">> x μM" if <25% inh at x μM, "> x μM" if 25-50% inh at x μM): > 10 µM
- IC50 (TbrPDEB1): > 10 µM

Structure (SMILES): COc1ccc(C(=O)Nc2c(Cl)cncc2Cl)cc1OC1CCCC1 [Compound 1, piclamilast]
- inhibition of TbrPDEB1 (TbrPDEB1; single concentration, not stated for this compound): over 50%

Structure (SMILES): COc1cc(C(=O)Nc2c(Cl)cncc2Cl)cc(OC)c1OC [Compound 9, N-(3,5-dichloropyridin-4-yl)-3,4,5-trimethoxybenzamide]
- activity against TbrPDEB2 (in words) (TbrPDEB2): without TbrPDEB1 or B2 activity
- activity against TbrPDEB1 (in words) (TbrPDEB1): without TbrPDEB1 or B2 activity
- cellular (trypanocidal) activity (in words) [1]: did not show cellular activity

Structure (SMILES): OCCN(CCO)c1nc(N2CCCCC2)c2nc(N(CCO)CCO)nc(N3CCCCC3)c2n1 [Dipyridamole (3), dipyridamole]
- inhibition at 100 µM (TbrPDEB1): > 50%

Structure (SMILES): COc1cccc(Nc2c(C(N)=O)cnc3c(C)cc(S(=O)(=O)c4cccc(C(=O)N(C)C)c4)cc23)c1 [GSK-256066, (5)]
- inhibition at 10 µM (TbrPDEB1): ≥ 50%

Structure (SMILES): Cc1noc(/C(=C/c2cccc(-c3cc(C(C)(C)S(C)(=O)=O)cc4cccnc34)c2)c2ccc(S(C)(=O)=O)cc2)n1 [L-454560 (4)]
- inhibition at 10 µM (TbrPDEB1): ≥ 50%

Structure (SMILES): CCCCOc1cc(CC2CNC(=O)N2)ccc1OC (stereo not shown) [RO 20-1724]
- IC50 (TbrPDEB1): > 100 µM

Structure (SMILES): O=C(Nc1c(Cl)cncc1Cl)c1ccc(OC(F)F)c(OCC2CC2)c1 [Roflumilast (6), roflumilast]
- activity against TbrPDEB1 (in words) (TbrPDEB1): essentially inactive

Structure (SMILES): COc1ccc(C2CNC(=O)C2)cc1OC1CCCC1 (stereo not shown) [Rolipram (7), rolipram]
- activity against TbrPDEB1 (in words) (TbrPDEB1): essentially inactive

Structure (SMILES): COc1cc2c(cc1OC)-c1c/c(=N\c3c(C)cc(C)cc3C)n(C)c(=O)n1CC2 [Trequinsin (2), trequinsin]
- inhibition at 100 µM (TbrPDEB1): > 50%
